Reference: PMC4559389, “Tumor Detection at 3 Tesla with an Activatable Cell Penetrating Peptide Dendrimer (ACPPD-Gd), a T1 Magnetic Resonance (MR) Molecular Imaging Agent” (PLoS ONE, 2015)
Values joined by “and” are separate entries in the source; they are usually repeats but may differ in a detail not shown here. Equal values may be shown once. “Also recorded” adds a separate entry of the source.

Experiments:
Assay type in all cases: in vivo, albino C57BL/6 mice
[1] = Post mortem tissue Gd content by ICP-MS; settings: ACPPD-Gd 24 h post, gadobutrol at equilibrium phase
Method: Mice were sacrificed immediately after the 14-day MRI study and tumors, liver, kidneys, and muscle were harvested and immediately frozen at -20°C for later analysis. Tissue Gd content was measured using inductively coupled plasma-mass spectrometry (ICP-MS) on defrosted and weighted tissues. Less than 100mg samples of each tissue were placed in 900uL of nitric acid on a Gyromixer overnight at room temperature. The next day, 200μL of 30% hydrogen peroxide were added, and after 2 hours the samples were heated to 90–100°C for 2 hours. Tuning solution was then added to a 5mL total volume. Samples were then run in an Agilent Technologies 7700 Series ICP-MS to measure gadolinium content in parts-per-billion. Tissue Gd concentration in micromolar was calculated as (ppb of Gd/Gd molecular weight)*(total weight of solution measured/tissue wet weight).

[2] = tested on: Py8119 mammary tumor; assay: T1-weighted MR tumor enhancement at 3T in mice with mammary fat pad tumors
Text: The University of California San Diego Institutional Animal Care and Use Committee (IACUC) approved this research under protocol S04011. All steps were ensured to minimize pain and suffering of all animals during the course of this experiment. Anesthesia during tumor inoculation and MR imaging was isoflurane/O2. All animals were given free access to food and water ad libitum during the entire study. Euthanasia involved CO2 asphyxiation followed by cervical dislocation. Each of the 4 inguinal nipples of 16 albino C57BL/6 (Harlan Labs) mice were randomized such that each mouse had 2 mammary fat pads inoculated with 10^4 Py8119 mammary tumor cells and the other 2 with an equal volume of saline. […]
All mice were imaged on days 4, 9, and 14 after inoculation under isoflurane/O2 anesthesia. […] Optimal ACPPD-Gd dose and imaging time were previously determined. […]
Tumor signal and size were quantified at each time point using region-of-interest (ROI) analysis with OsiriX software (Pixmeo, Geneva). […] Tumors <1mm^3 were not analyzed because of unreliable ROI placement and partial volume effects. A polygonal ROI was traced around the tumor on the fat-saturated T1-weighted axial sequence at its maximal dimension and the average signal and cross-sectional area recorded. […] Tumor volume was calculated using an ellipsoid function as 4/3*(area of tumor ROI)*(1/2)*(maximal orthogonal coronal diameter). […]

[3] = tested on: Py8119 mammary tumor; assay: Blinded reader tumor detection on 3T MRI (ROC/AUC, inter-observer kappa); settings: for AUC (95%CI) of ROC curve for tumor presence, Reader 1 (experienced), all tumors (n = 107) / AUC (95%CI) of ROC curve for tumor presence, Reader 2 (trainee), all tumors (n = 107): 288 breasts, ACPPD-Gd 24 h post, gadobutrol 2–3 min post; for AUC (95%CI) of ROC curve for tumor presence, Reader 1 (experienced), tumors <5mm^3 (n = 58) / AUC (95%CI) of ROC curve for tumor presence, Reader 2 (trainee), tumors <5mm^3 (n = 58): obvious tumors (>5mm^3) removed
Text: The acquired 72 studies (3 groups x 8 mice x 3 time points) with 4 pulsing sequences each were anonymized and presented at random to 2 observers blinded to contrast grouping, time since inoculation, and which 2 nipples were inoculated with tumor. Reader 1 is an MR expert with extensive experience in clinical and animal MR image interpretation (RFM) and Reader 2 is a 2nd-year radiology resident in training (ESO). Studies were reviewed independently and readers reported whether the breast tissue under each of the 4 nipples in each study was normal or contained tumor along with their confidence level as low, medium, or high. If a tumor was present they described the degree and pattern of tumor enhancement.
Receiver operating characteristic (ROC) curves were constructed using 4 levels: normal, low, medium and high probability for tumor presence. There were 288 breasts evaluated (3 groups x 8 animals x 3 time-points x 4 breasts). […] Additional ROC curves were constructed for tumors <5mm^3 to assess the potential benefit of ACPPD-Gd in detecting small tumors. Interobserver agreement was assessed for all 288 breasts and within each of the 3 contrast groups using the kappa statistic. Area under the ROC curve (AUC) was calculated for the 3 contrast groups using the JROC web-based program.

## O=C([O-])CN1CCN(CC(=O)[O-])CCN([C@H](CO)[C@H](O)CO)CCN(CC(=O)[O-])CC1.[Gd+3] (racemic) [gadobutrol, Gd-DO3A-butrol]
[1]; ICP-MS of tumors, liver, kidneys, muscle
  Gd biodistribution: organ of dominant accumulation: the majority of Gd was in the kidneys
[1]; ICP-MS, 14 days after inoculation, mean±SD
  Tumor to muscle Gd concentration ratio: 2.7 ± 1.0
[2]; 3T axial fat-saturated T1w images
  Pattern of tumor enhancement: more apparent at the tumor periphery; also recorded: enhanced predominantly the tumor rim
[2]; 3T, ACPPD-Gd 24 h after 0.036 mmol Gd/kg, gadobutrol 2–3 min after 0.1 mmol/kg, mean±SD, p = 0.03
  T1w tumor enhancement, small tumors (1-5mm^3): 19±18%
[3]
  AUC (95%CI) of ROC curve for tumor presence, Reader 1 (experienced), all tumors (n = 107): 0.91 and 0.92
  AUC (95%CI) of ROC curve for tumor presence, Reader 2 (trainee), all tumors (n = 107): 0.81
  AUC (95%CI) of ROC curve for tumor presence, Reader 1 (experienced), tumors <5mm^3 (n = 58): 0.86
  AUC (95%CI) of ROC curve for tumor presence, Reader 2 (trainee), tumors <5mm^3 (n = 58): 0.69
[3]; listed as Gadobutrol
  AUC (95%CI) of ROC curve for tumor presence, Reader 1 (experienced), all tumors (n = 107): 0.92 (0.86, 0.98)
  AUC (95%CI) of ROC curve for tumor presence, Reader 2 (trainee), all tumors (n = 107): 0.81 (0.73, 0.90)
  AUC (95%CI) of ROC curve for tumor presence, Reader 1 (experienced), tumors <5mm^3 (n = 58): 0.86 (0.75, 0.96)
  AUC (95%CI) of ROC curve for tumor presence, Reader 2 (trainee), tumors <5mm^3 (n = 58): 0.69 (0.57, 0.81)
